Consider 35 compounds from patent US20130131116A1, “PEST CONTROL COMPOSITION” (SUMITOMO CHEMICAL COMPANY, LIMITED, priority 2010, published 2013).

By melting point is commonly meant the temperature, or range, at which the solid turns liquid. What is called mortality is the share of the test organisms that died.

Series [1] relates to Haemaphysalis longicornis. Nature of the series: Test Example 3: Insecticidal Test on Haemaphysalis longicornis By Treating Glass Surface. Type of series: in vivo. The conditions noted are these: for Mortality Rate (%): after 2 days. As for the experimental part:
Acetone solutions were each prepared for the present hydrazide compounds and the present ester compounds. To inner walls of a glass screw tube and lid (NO. 5, manufactured by Maruemu Corporation), 0.2 mL of the acetone solution was uniformly applied. […] The lid is closed tightly, and the number of dead ticks is examined after 2 days.

Setting [2] is: Haemaphysalis longicornis, 48 h, read-out: Mortality Rate (%).

With `CC(=O)N(NC(=O)C1CC1)c1cc(C2=NOC(c3cc(Cl)cc(Cl)c3)(C(F)(F)F)C2)ccc1Cl` (stereo not drawn), the melting point turned out to be 160 °C. Still for that read-out and setting: to `O=C(NNc1cc(C2=NOC(c3cc(Cl)cc(Cl)c3)(C(F)(F)F)C2)ccc1Cl)C(F)(F)F` (stereo not drawn) belongs 64 °C; to `COc1ccc(C(=O)NNc2cc(C3=NOC(c4cc(Cl)cc(Cl)c4)(C(F)(F)F)C3)ccc2Cl)cc1` (stereo not drawn), 131 °C. Still for that read-out and setting: to `O=C(NNc1cc(C2=NOC(c3cc(Cl)cc(Cl)c3)(C(F)(F)F)C2)ccc1Cl)c1ccncc1` (stereo not drawn) belongs 115 °C; to `CC(=O)NN(C(=O)c1ccccc1)c1cc(C2=NOC(c3cc(Cl)cc(Cl)c3)(C(F)(F)F)C2)ccc1Cl` (stereo not drawn), 142 °C. The same measure, in the same setting: for `C=CC(=O)NN(C(=O)OC(C)(C)C)c1cc(C2=NOC(c3cc(Cl)cc(Cl)c3)(C(F)(F)F)C2)ccc1Cl` (stereo not drawn) the value was 119 °C; for `O=C(NNc1cc(C2=NOC(c3cc(Cl)cc(Cl)c3)(C(F)(F)F)C2)ccc1Cl)c1ccccc1` (stereo not drawn), 105 °C.

In the case of `CC(=O)NNc1cc(C2=NOC(c3cc(Cl)cc(Cl)c3)(C(F)(F)F)C2)ccc1Cl` (stereo not drawn), the melting point was 94 °C.

Take `O=C(NN(C(=O)c1ccccc1)c1cc(C2=NOC(c3cc(Cl)cc(Cl)c3)(C(F)(F)F)C2)ccc1Cl)C1CC1` (stereo not drawn): the melting point turned out to be 172 °C. The same measure, in the same setting: for `CC(=O)N(NC(=O)c1ccccc1)c1cc(C2=NOC(c3cc(Cl)cc(Cl)c3)(C(F)(F)F)C2)ccc1Cl` (stereo not drawn) the value was 107 °C; for `FC(F)(F)C1(c2cc(Cl)cc(Cl)c2)CC(c2ccc(Cl)c(NNC(=S)NC3CCCCC3)c2)=NO1` (stereo not drawn), 126 °C.

Take `COCC(=O)NN(C(C)=O)c1cc(C2=NOC(c3cc(Cl)cc(Cl)c3)(C(F)(F)F)C2)ccc1Cl` (stereo not drawn): the melting point is 164 °C. Regarding `CC(C)=CC1(C=C(Cl)Cl)C(C(=O)OCc2cccc(Oc3ccccc3)c2)C1(C)C` (stereo not drawn) [Present ester compound (2), 3-phenoxybenzyl 3-(2,2-dichlorovinyl)-2,2-dimethyl-3-(2-methylprop-1-enyl)cyclopropanecarboxylate, reference compound], in series [1] (setting [2]), the mortality at 0.8 mg/m2 is 13%.

`CC(=O)N(C)N(C(=O)OC(C)(C)C)c1cccc(C2=NOC(c3cc(Cl)cc(Cl)c3)(C(F)(F)F)C2)c1` (stereo not drawn) returned a melting point of 79 °C. Take `CC(C)=C[C@@H]1[C@@H](C(=O)O[C@H](C#N)c2cccc(Oc3ccccc3)c2)C1(C)C` (relative stereo) [Present ester compound (3), (1S)-α-cyano-3-phenoxybenzyl (1R)-trans-2,2-dimethyl-3-(2-methylprop-1-enyl)cyclopropanecarboxylate, reference compound]: the “Mortality Rate (%)” value in series [1] (ester compound alone 0.8 mg/m^2, glass surface) is listed as 10%. On to `O=C(CCC(F)(F)F)NN(C(=O)c1ccccc1)c1cc(C2=NOC(c3cc(Cl)cc(Cl)c3)(C(F)(F)F)C2)ccc1Cl` (stereo not drawn), for which the melting point was 157 °C. Still for that read-out and setting: to `O=C(NNc1cc(C2=NOC(c3cc(Cl)cc(Cl)c3)(C(F)(F)F)C2)ccc1Cl)Nc1ccccc1` (stereo not drawn) belongs 131 °C. Regarding `O=C(NNc1cc(C2=NOC(c3cc(Cl)cc(Cl)c3)(C(F)(F)F)C2)ccc1Cl)c1ccc([N+](=O)[O-])cc1` (stereo not drawn), the melting point amounted to 231 °C.

In turn, `CC(=O)N(C)N(C)c1cccc(C2=NOC(c3cc(Cl)cc(Cl)c3)(C(F)(F)F)C2)c1` (stereo not drawn) yielded a melting point of 151 °C. “3-phenoxybenzyl (1R)-cis/trans-2,2-dimethyl-3-(2-methylprop-1-enyl)cyclopropanecarboxylate [Present ester compound (1), reference compound]”: the “Mortality Rate (%)” value in series [1] (ester compound alone 4 mg/m^2, glass surface) is reported as 15%.

Regarding `O=C(NNc1cc(C2=NOC(c3cc(Cl)cc(Cl)c3)(C(F)(F)F)C2)ccc1Cl)Nc1ccc([N+](=O)[O-])cc1` (stereo not drawn), the melting point is 201 °C. Still for that read-out and setting: to `FC(F)(F)C1(c2cc(Cl)cc(Cl)c2)CC(c2ccc(Cl)c(NNC(=S)Nc3ccccc3)c2)=NO1` (stereo not drawn) belongs 213 °C.

Consider `CN(NC(=O)CCC(F)(F)F)c1cc(C2=NOC(c3cc(Cl)cc(Cl)c3)(C(F)(F)F)C2)ccc1Cl` (stereo not drawn) [Present hydrazide compound (31), N′-methyl-N′-{2-chloro-5-[5-(3,5-dichlorophenyl)-5-trifluoromethyl-4,5-dihydroisoxazol-3-yl]phenyl}-4,4,4-trifluorobutyrohydrazide], for which the mortality at 0.0064 mg/m2 in series [1] (setting [2]) is 3.3%.

Regarding `O=C(/C=C/c1ccccc1)NNc1cc(C2=NOC(c3cc(Cl)cc(Cl)c3)(C(F)(F)F)C2)ccc1Cl` (stereo not drawn), the melting point was 205 °C.

With `CC(=O)NNc1cccc(C2=NOC(c3cc(Cl)cc(Cl)c3)(C(F)(F)F)C2)c1` (stereo not drawn), the melting point came out at 100 °C. For `CN(C)C(=O)NNc1cc(C2=NOC(c3cc(Cl)cc(Cl)c3)(C(F)(F)F)C2)ccc1Cl` (stereo not drawn), the melting point stood at 212 °C. On the same count and under the same terms, to `CCC(=O)NNc1cc(C2=NOC(c3cc(Cl)cc(Cl)c3)(C(F)(F)F)C2)ccc1Cl` (stereo not drawn) belongs 92 °C. For the compound `CC(C)(C)OC(=O)N(NC(=O)C1CC1)c1cc(C2=NOC(c3cc(Cl)cc(Cl)c3)(C(F)(F)F)C2)ccc1Cl` (stereo not drawn), the melting point stood at 180 °C.

In turn, `O=C(NNc1cc(C2=NOC(c3cc(Cl)cc(Cl)c3)(C(F)(F)F)C2)ccc1Cl)c1cccnc1` (stereo not drawn) displayed a melting point of 205 °C. As to `CC(=O)N(C)Nc1cccc(C2=NOC(c3cc(Cl)cc(Cl)c3)(C(F)(F)F)C2)c1` (stereo not drawn), the melting point was 88 °C.

As to `C=CC(=O)NNc1cc(C2=NOC(c3cc(Cl)cc(Cl)c3)(C(F)(F)F)C2)ccc1Cl` (stereo not drawn), the melting point is 90 °C. Same read-out and setting: to `CC(=O)NN(C(C)=O)c1cc(C2=NOC(c3cc(Cl)cc(Cl)c3)(C(F)(F)F)C2)ccc1Cl` (stereo not drawn) belongs 108 °C; to `Cc1ccc(C2=NOC(c3cc(Cl)cc(Cl)c3)(C(F)(F)F)C2)cc1NNC(=O)OC(C)C` (stereo not drawn), 71 °C. Still for that read-out and setting: to `CCCC(=O)NNc1cc(C2=NOC(c3cc(Cl)cc(Cl)c3)(C(F)(F)F)C2)ccc1Cl` (stereo not drawn) belongs 82 °C.

Take `O=C(CCC(F)(F)F)NNc1cc(C2=NOC(c3cc(Cl)cc(Cl)c3)(C(F)(F)F)C2)ccc1Cl` (stereo not drawn) [Present hydrazide compound (17), N′-{5-[5-(3,5-dichlorophenyl)-5-trifluoromethyl-4,5-dihydroisoxazol-3-yl]-2-chlorophenyl}-4,4,4-trifluorobutyrohydrazide]: in series [1] (setting [2]), the mortality at 0.032 mg/m2 amounted to 3.3% and the mortality at 0.16 mg/m2 amounted to 40%.
